This data set can be described thus: Solubility of UV absorber in oil comprising ionic liquid. It is filed as physicochemical. To be noted: for solubility: 21 °C, thermodynamic from solid, read-out: Solubility of Tinosorb ® S with Cetiol ® B as oil; for Solubility of Uvinul ® T150 with Cetiol ® B as oil: 21° C. The procedure:
For this, increasing amounts of active ingredient were added stepwise to oil (Cetiol® B or Solvesso®), which comprised the ionic liquid, until the maximum solubility was reached. Alternatively, the oil, which comprised the ionic liquid, was saturated with the active ingredient and the soluble fraction of active ingredient was quantified by means of HPLC.

SMILES strings stand for the structures. Values after ≈ are worked out from the molar mass of the structure shown. Where two headings read alike, the source gives them in different places.

With `CCCCC(CC)COc1ccc(-c2nc(-c3ccc(OC)cc3)nc(-c3ccc(OCC(CC)CCCC)cc3O)n2)c(O)c1` (centres unmarked) [Tinosorb ® S, bis-ethylhexyloxyphenol methoxyphenyl triazine], the solubility reads like this: (neat ionic liquid (no oil), organic solvent or mixture, 100 IL (no oil), IL N-butyl-N′-methylimidazolium acetate) 1 mg/mL (≈ 1590 µM); (neat ionic liquid (no oil), organic solvent or mixture, 100 IL (no oil), IL N-ethyl-N′-ethylimidazolium heptanoate) 1 mg/mL (≈ 1590 µM); (neat ionic liquid (no oil), organic solvent or mixture, 100 IL (no oil), IL N-ethyl-N′-ethylimidazolium octanoate) 1 mg/mL (≈ 1590 µM); (neat ionic liquid (no oil), organic solvent or mixture, 100 IL (no oil), IL N-ethyl-N′-methylimidazolium isononanoate) 9.5 mg/mL (≈ 15100 µM); (neat oil (no ionic liquid), oil or lipid, 100 Oil (Cetiol B, no IL)) 6.2 mg/mL (≈ 9880 µM); (oil/ionic liquid mixture, oil or lipid, Oil/IL 20/80 weight ratio, IL N-butyl-N′-methylimidazolium acetate) 12.4 mg/mL. For the same compound, the solubility is 16.7 mg/mL (oil/ionic liquid mixture, oil or lipid, Oil/IL 20/80 weight ratio, IL N-ethyl-N′-ethylimidazolium octanoate); 19.2 mg/mL (oil/ionic liquid mixture, oil or lipid, Oil/IL 20/80 weight ratio, IL N-ethyl-N′-methylimidazolium isononanoate); 14.3 mg/mL (oil/ionic liquid mixture, oil or lipid, Oil/IL 60/40 weight ratio, IL N-butyl-N′-methylimidazolium acetate); 21.9 mg/mL (oil/ionic liquid mixture, oil or lipid, Oil/IL 60/40 weight ratio, IL N-ethyl-N′-ethylimidazolium heptanoate); 21.9 mg/mL (oil/ionic liquid mixture, oil or lipid, Oil/IL 60/40 weight ratio, IL N-ethyl-N′-ethylimidazolium octanoate); 22.4 mg/mL (oil/ionic liquid mixture, oil or lipid, Oil/IL 60/40 weight ratio, IL N-ethyl-N′-methylimidazolium isononanoate). Further, the solubility is 11.7 mg/mL (oil/ionic liquid mixture, oil or lipid, Oil/IL 90/10 weight ratio, IL N-butyl-N′-methylimidazolium acetate); 13 mg/mL (oil/ionic liquid mixture, oil or lipid, Oil/IL 90/10 weight ratio, IL N-ethyl-N′-ethylimidazolium heptanoate); 13 mg/mL (oil/ionic liquid mixture, oil or lipid, Oil/IL 90/10 weight ratio, IL N-ethyl-N′-ethylimidazolium octanoate); 13.8 mg/mL (oil/ionic liquid mixture, oil or lipid, Oil/IL 90/10 weight ratio, IL N-ethyl-N′-methylimidazolium isononanoate).

Consider `CCCCC(CC)COC(=O)c1ccc(Nc2nc(Nc3ccc(C(=O)OCC(CC)CCCC)cc3)nc(Nc3ccc(C(=O)OCC(CC)CCCC)cc3)n2)cc1` (centres unmarked) [Uvinul ® T150, 2,4,6-trianilino-p-(carbo-2′-ethylhexyl-1′-oxy)-1,3,5-triazine], for which the “Solubility of Uvinul ® T150 with Cetiol ® B as oil” value (“Solubility of Uvinul ® T150” for short) is, setting by setting: (100 IL (no oil), IL Cholinium [2-(2-methoxyethoxy)ethoxy]acetate) 1 mg/mL; (100 IL (no oil), IL N-butyl-N′-methylimidazolium acetate) 5 mg/mL; (100 IL (no oil), IL N-ethyl-N′-ethylimidazolium propionate) 5 mg/mL; (100 IL (no oil), IL N-ethyl-N′-methylimidazolium acetate) 1 mg/mL; (100 IL (no oil), IL N-ethyl-N′-methylimidazolium isononanoate) 1 mg/mL; (100 Oil (Cetiol B, no IL)) 14.2 mg/mL. Further, the “Solubility of Uvinul ® T150” value runs as follows: (Oil/IL 20/80 weight ratio, IL N-butyl-N′-methylimidazolium acetate) 41.5 mg/mL; (Oil/IL 20/80 weight ratio, IL N-ethyl-N′-ethylimidazolium propionate) 44.1 mg/mL; (Oil/IL 20/80 weight ratio, IL N-ethyl-N′-methylimidazolium acetate) 40.8 mg/mL; (Oil/IL 20/80 weight ratio, IL N-ethyl-N′-methylimidazolium isononanoate) 34.8 mg/mL; (Oil/IL 60/40 weight ratio, IL N-butyl-N′-methylimidazolium acetate) 54.1 mg/mL; (Oil/IL 60/40 weight ratio, IL N-ethyl-N′-ethylimidazolium propionate) 54.3 mg/mL. Moreover, the “Solubility of Uvinul ® T150” value is 52.8 mg/mL (Oil/IL 60/40 weight ratio, IL N-ethyl-N′-methylimidazolium acetate); 45.7 mg/mL (Oil/IL 60/40 weight ratio, IL N-ethyl-N′-methylimidazolium isononanoate); 21.3 mg/mL (Oil/IL 90/10 weight ratio, IL Cholinium [2-(2-methoxyethoxy)ethoxy]acetate); 37.5 mg/mL (Oil/IL 90/10 weight ratio, IL N-butyl-N′-methylimidazolium acetate); 33.3 mg/mL (Oil/IL 90/10 weight ratio, IL N-ethyl-N′-ethylimidazolium propionate); 37.5 mg/mL (Oil/IL 90/10 weight ratio, IL N-ethyl-N′-methylimidazolium acetate). In addition, where the note is “Oil/IL 90/10 weight ratio, IL N-ethyl-N′-methylimidazolium isononanoate”, the “Solubility of Uvinul ® T150” value was 32.4 mg/mL.

The term solubility denotes how much of the substance goes into solution per volume.

For the origin of these results see patent US9949475B2, “Composition comprising active ingredient, oil and ionic liquid” (priority 2011, dated 2018).
